Our source for the solubility in water values is patent publication US6458770B1, “Parenteral formulations comprising carbamazepine or its derivatives” (Novartis AG, priority 1997, dated 2002).

This data set can be described thus: Solubility of the active agent in water. The format is physicochemical. The settings on record: 25° C., pH of 5.8 to 6.0. The method, then:
A wide range of container sizes may be employed. Container size may be conveniently categorised as Low-Volume, i.e. 100 ml or less and High-Volume, i.e. above 100 ml and typically 250 ml. […] parenteral formulations could of course be employed but this may require the use of an organic co-solvent or other solubilising aid which is less desirable than a totally water-based formulation.

Compound `NC(=O)N1c2ccccc2CC(O)c2ccccc21` (stereo not shown) [COMPOUND A, 10-hydroxy-10,11-tetrahydrocarbamazepine] returned a solubility in water of 3200 to 4200 µg/mL.
